Results on ten molecules are retold here after article PMC9785202, “Changes in Disposition of Ezetimibe and Its Active Metabolites Induced by Impaired Hepatic Function: The Influence of Enzyme and Transporter Activities” (Pharmaceutics, 2022).

The target of one data set is T1, OATP1B3 (Homo sapiens, UniProt Q9NPD5).
T1 sequence (Q9NPD5 1-702): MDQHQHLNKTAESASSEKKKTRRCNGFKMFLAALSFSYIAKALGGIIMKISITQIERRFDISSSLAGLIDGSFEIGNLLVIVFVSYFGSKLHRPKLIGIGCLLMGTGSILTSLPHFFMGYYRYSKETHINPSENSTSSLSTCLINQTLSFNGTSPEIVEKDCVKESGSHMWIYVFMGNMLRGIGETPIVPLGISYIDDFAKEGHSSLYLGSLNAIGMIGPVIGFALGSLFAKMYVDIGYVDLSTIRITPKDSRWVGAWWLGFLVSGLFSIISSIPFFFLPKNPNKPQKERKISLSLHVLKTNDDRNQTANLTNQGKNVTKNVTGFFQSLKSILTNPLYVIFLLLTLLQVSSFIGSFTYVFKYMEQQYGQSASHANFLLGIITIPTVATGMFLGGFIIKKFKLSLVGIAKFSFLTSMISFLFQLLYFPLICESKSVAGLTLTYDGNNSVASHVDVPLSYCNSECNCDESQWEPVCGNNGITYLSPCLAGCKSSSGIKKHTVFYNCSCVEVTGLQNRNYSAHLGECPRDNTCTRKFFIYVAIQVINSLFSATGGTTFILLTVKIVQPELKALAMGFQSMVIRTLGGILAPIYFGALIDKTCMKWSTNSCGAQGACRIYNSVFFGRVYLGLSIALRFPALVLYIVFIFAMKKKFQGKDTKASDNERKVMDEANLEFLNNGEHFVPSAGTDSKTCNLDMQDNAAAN
Briefly: Inhibition of OATP1B3-mediated uptake in OATP1B3-transfected HEK293 cells by bile acids and rifampicin.

Data set [1] in a line: CCl4-induced hepatic failure rat model: liver index and serum ALT, AST, AKP. Format: in vivo, Sprague–Dawley (SD) rats. The method, then: All animal studies were carried out according to the Guide for the Care and Use of Laboratory Animals of the Shanghai Institute of Materia Medica, Chinese Academy of Sciences. Male Sprague–Dawley (SD) rats weighing 180 to 220 g were randomized into two groups. The CCl4-induced model group was administered an intraperitoneal injection of CCl4 (20% in corn oil) at a dose of 2.5 mL/kg three times a week for 8 weeks. The control group was treated intraperitoneally with the same volume of corn oil at the same time intervals. Blood samples were collected and centrifuged at 11,600 g for 5 min to obtain serum samples for the determination of serum ALT, AST, and AKP.
Serum ALT, AST, and AKP were measured using the corresponding assay kits following the manufacturer’s instructions. Tissues fixed in 4% paraformaldehyde were embedded in paraffin, cut into slices with a 3 μm thickness, and stained with hematoxylin and eosin (H&E).

For data set [2] the following is noted: for Autosampler stability (4°C, 24 h), RE / Post-extraction stability (room temperature 3 h), RE / Freeze-thaw stability (−20°C, three cycles), RE / Short-term stability (room temperature 3 h), RE: n = 6; for Freeze-thaw stability (−20°C, three cycles), RE / Short-term stability (room temperature 3 h), RE: rat plasma.
Data set [3] is described as follows: Pharmacokinetics after intravenous or oral administration of 10 mg/kg EZE to control and CCl4-induced rats. Format: in vivo. The settings on record: for AUC(0-t) / Cmax / Tmax / half-life: Sprague-Dawley, rat, plasma, 10 mg/kg. The method, then:
Animals were fasted for 12 h with free access to water before the experiments. EZE was administered orally (prepared in 0.5% carboxymethylcellulose sodium) or intravenously (dissolved in 10% dimethyl sulfoxide, 10% tween-80, and 80% sterile H2O) to CCl4-induced rats (n = 5) and control rats (n = 5) at 10 mg/kg. Blood samples were collected from the retro-orbital venous plexus before administration (0 h), at 5, 15, and 30 min, and at 1, 2, 4, 6, 8, 12, 24, and 48 h after administration in tubes containing EDTA-2K. Plasma samples were harvested by centrifugation at 11,600 g for 5 min at 4 °C and then stored at −80 °C until further analysis.
A 25.0 μL aliquot of each sample and 25.0 μL of internal standard (50.0 ng/mL EZE-d4) were mixed with 100 μL of acetonitrile. After the samples were vortexed and centrifugated at 2250 g for 15 min, the supernatants were used to measure EZE and its metabolites by LC-MS/MS.
WinNonlin version 6.1 (Pharsight Corp., Cary, NC, USA) was used to calculate the pharmacokinetic parameters in a non-compartmental model. Statistical comparisons between the two groups were evaluated using a Student’s two-tailed unpaired t-test or the nonparametric Mann–Whitney test in GraphPad Prism (version 8.0, GraphPad Software Inc, SanDiego, CA, USA). A value of p < 0.05 was considered significant. All data were presented as the mean ± S.D. (n ≥ 3).

The next data set deals with rat primary hepatocytes. Briefly: Inhibition of EZE-Ph uptake into rat primary hepatocytes by bile acids and rifampicin. The settings on record: inhibitor 200 µmol/L, 10 μM EZE-Ph, 10 min.
Substrate in data set [4]: O=C(O)C1OC(Oc2ccc([C@@H]3[C@@H](CC[C@H](O)c4ccc(F)cc4)C(=O)N3c3ccc(F)cc3)cc2)C(O)C(O)C1O
Briefly: Uptake of EZE-Ph into OATP1B1-transfected HEK293 cells. Format: in vitro ADME, human. The settings on record: other: OATP1B1 HEK293, uptake time 5 min; 37.0 °C. On the procedure:
The kinetic parameters and the half inhibitory concentration (IC50) were calculated using GraphPad Prism. […] The intrinsic clearance (CLint) was calculated as CLint = Vmax/Km.

[5] abbreviates: CCl4-induced rats vs control rats.
Where [6] appears, read: serum, CCl4-induced rats, n = 16.
Where [7] appears, read: iv, i.v. 10 mg/kg EZE, CCl4-induced rats.
Where [8] appears, read: iv, i.v. 10 mg/kg EZE, control rats.
[9] abbreviates: po, p.o. 10 mg/kg EZE, CCl4-induced rats.
Setting [10] is: po, p.o. 10 mg/kg EZE, control rats.
[11] abbreviates: oral administration of 10 mg/kg EZE.

Like-named read-outs stand apart in the source and are kept apart here. Marks after values point to notes of the source that are not given here.

One may read the IC50 as the concentration needed to halve the response being measured. The molecule `C[C@H](CCC(=O)O)[C@H]1CC[C@H]2[C@@H]3[C@H](O)C[C@@H]4C[C@H](O)CC[C@]4(C)[C@H]3C[C@H](O)[C@]12C` [CA, cholic acid] returned a 50% inhibitory concentration (IC50) at OATP1B3 of 121 µM.

For the molecule `ClC(Cl)(Cl)Cl` [CCl4, Carbon tetrachloride], in data set [1] (setting [5]), the “serum AKP, fold higher than in control rats” value is 3.86 fold; the “serum ALT, fold higher than in control rats” value was found to be 8.62 fold; the “serum AST, fold higher than in control rats” value stood at 5.76 fold. Moreover, in data set [1] (CCl4-induced rats, 8 weeks of treatment, n = 16), the Liver weight/body weight is 37.9 ± 5.9 ^c. In addition, in data set [1] (setting [6]), the AKP is 9887 ± 1633 ^d U/L, the ALT is 112 ± 33 ^d U/L and the AST is 125 ± 34 ^d U/L.

Take `C[C@H](CCC(=O)O)[C@H]1CC[C@H]2[C@@H]3[C@H](O)C[C@@H]4C[C@H](O)CC[C@]4(C)[C@H]3CC[C@]12C` [CDCA, chenodeoxycholic acid]: at OATP1B3, the IC50 worked out at 8.92 µM.

One may read the AUC(0-t) as exposure summed from dosing to a finite time, without extrapolation to infinity. As a reminder, the Cmax is the highest concentration seen after dosing. A word on the Tmax: it is the time at which the peak concentration occurs. In general, half-life refers to the time needed for the level to fall by half in the phase considered. Read a low half-life as rapid decline. With `O=C(O)[C@H]1O[C@@H](O[C@@H](CC[C@H]2C(=O)N(c3ccc(F)cc3)[C@@H]2c2ccc(O)cc2)c2ccc(F)cc2)[C@H](O)[C@@H](O)[C@@H]1O` [EZE-Hy, ezetimibe hydroxy β-D-glucuronide], in data set [2] (HQC (800/2400/800 ng/ml)), the “Autosampler stability (4°C, 24 h), RE” value turned out to be 9.0%; the “Post-extraction stability (room temperature 3 h), RE” value is recorded as 5.2%; the “Freeze-thaw stability (−20°C, three cycles), RE” value stood at 2.0%; the “Short-term stability (room temperature 3 h), RE” value is given as -3.6%. In data set [2] (LQC (3.00/9.00/3.00 ng/ml)), the “Autosampler stability (4°C, 24 h), RE” value was 7.9%; the “Post-extraction stability (room temperature 3 h), RE” value was 8.9%; the “Freeze-thaw stability (−20°C, three cycles), RE” value was -0.1%. The “stability in rat plasma under the test conditions” value in data set [2] (LQC and HQC samples, short-term, post-extraction, auto-sampler, three freeze/thaw cycles) was “stable”. Moreover, the “Short-term stability (room temperature 3 h), RE” value in data set [2] (LQC (EZE/EZE-Ph/EZE-Hy 3.00/9.00/3.00 ng/ml)) was -6.9%. For the same molecule, in data set [2] (room temperature for 2 h), the stability in blood entry is “stable”. In data set [3] (setting [7]), the AUC(0-t) worked out at 4250 ± 2050 ng·h/mL, the Cmax was determined as 146 ± 42 ng/mL, the time of peak concentration (Tmax) was 11.2 ± 7.6 h and the half-life was 15.3 ± 2.4 h. In data set [3] (setting [8]), the AUC(0-t) came out at 992 ± 392 ng·h/mL, the highest concentration (Cmax) was determined as 36.9 ± 9.6 ng/mL, the Tmax amounted to 16.8 ± 6.6 h and the half-life is 16.1 ± 7.6 h. For the same molecule, in data set [3] (setting [9]), the AUC(0-t) turned out to be 1170 ± 418 ng·h/mL, the Cmax was determined as 38.1 ± 10.1 ng/mL and the Tmax was 14.4 ± 5.4 h. In data set [3] (setting [10]), the AUC(0-t) stood at 463 ± 160 ng·h/mL, the Cmax stood at 24.6 ± 9.9 ng/mL and the Tmax came out at 12 h. Moreover, the “AUC0–t, fold higher in CCl4-induced rats than in control rats” value in data set [3] (intravenous injection of 10 mg/kg EZE) came to 4.3 fold. In data set [3] (setting [11]), the “AUC0–t, fold higher in CCl4-induced rats than in control rats” value was 2.5 fold and the “share in plasma relative to the main circulating component EZE-Ph” value was found to be 11%.

`CC(CCC(=O)NCC(=O)O)C1CCC2C3C(O)CC4CC(O)CCC4(C)C3CCC12C` (stereo not drawn) [GCDCA, glycochenodeoxycholic acid]: half-maximal inhibition against OATP1B3 (IC50) was put at 15.1 µM.

Regarding `C[C@H](CCC(=O)NCC(=O)O)[C@H]1CC[C@H]2[C@@H]3[C@@H](O)C[C@@H]4C[C@H](O)CC[C@]4(C)[C@H]3CC[C@]12C` [GUDCA, glycoursodeoxycholic acid], the 50% inhibitory concentration (IC50) at OATP1B3 came to 46.1 µM.

Molecule `C[C@H](CCC(=O)NCCS(=O)(=O)O)[C@H]1CC[C@H]2[C@@H]3[C@@H](O)C[C@@H]4C[C@H](O)CC[C@]4(C)[C@H]3CC[C@]12C` [TUDCA, tauroursodeoxycholic acid] came in with a concentration for half-maximal inhibition (IC50) at OATP1B3 of 26 µM.

`C[C@H](CCC(=O)O)[C@H]1CC[C@H]2[C@@H]3[C@@H](O)C[C@@H]4C[C@H](O)CC[C@]4(C)[C@H]3CC[C@]12C` [UDCA, ursodeoxycholic acid] had an IC50 on OATP1B3 of 25.5 µM.

For the molecule `CO[C@H]1/C=C/O[C@@]2(C)Oc3c(C)c(O)c4c(O)c(c(/C=N/N5CCN(C)CC5)c(O)c4c3C2=O)NC(=O)/C(C)=C\C=C\[C@H](C)[C@H](O)[C@@H](C)[C@@H](O)[C@@H](C)[C@H](OC(C)=O)[C@@H]1C` [rifampicin, reference compound], the “EZE-Ph uptake by rat hepatocytes in the presence of inhibitor” value with rat primary hepatocytes is 12.0%. Moreover, the “uptake of estradiol-17β-glucuronide in OATP1B3-expressing HEK293 cells in the presence of inhibitor” value at OATP1B3 (inhibitor 200 μM, substrate estradiol-17β-glucuronide) is 3.89%.

B1: OATP1B1 (Homo sapiens) (protein)
chain: MDQNQHLNKTAEAQPSENKKTRYCNGLKMFLAALSLSFIAKTLGAIIMKSSIIHIERRFEISSSLVGFIDGSFEIGNLLVIVFVSYFGSKLHRPKLIGIGCFIMGIGGVLTALPHFFMGYYRYSKETNINSSENSTSTLSTCLINQILSLNRASPEIVGKGCLKESGSYMWIYVFMGNMLRGIGETPIVPLGLSYIDDFAKEGHSSLYLGILNAIAMIGPIIGFTLGSLFSKMYVDIGYVDLSTIRITPTDSRWVGAWWLNFLVSGLFSIISSIPFFFLPQTPNKPQKERKASLSLHVLETNDEKDQTANLTNQGKNITKNVTGFFQSFKSILTNPLYVMFVLLTLLQVSSYIGAFTYVFKYVEQQYGQPSSKANILLGVITIPIFASGMFLGGYIIKKFKLNTVGIAKFSCFTAVMSLSFYLLYFFILCENKSVAGLTMTYDGNNPVTSHRDVPLSYCNSDCNCDESQWEPVCGNNGITYISPCLAGCKSSSGNKKPIVFYNCSCLEVTGLQNRNYSAHLGECPRDDACTRKFYFFVAIQVLNLFFSALGGTSHVMLIVKIVQPELKSLALGFHSMVIRALGGILAPIYFGALIDTTCIKWSTNNCGTRGSCRTYNSTSFSRVYLGLSSMLRVSSLVLYIILIYAMKKKYQEKDINASENGSVMDEANLESLNKNKHFVPSAGADSETHC
notes: host or cells: HEK293
The Km is the substrate concentration at which the rate is half of its maximum. What is called Vmax is the rate approached at saturating substrate. For B1, in data set [4], the Km stood at 91.5 µM, the Vmax came to 5.17e-05 µmol/min/mg and the Vmax/Km amounted to 0.56 µL/min/mg.
